Patent US12163953B2, “P-phenylene ethynylene compounds as bioactive and detection agents” (STC.UNM, priority 2014, dated 2024)

Key:
[1] = in water; cited from earlier work
HEWL amyloids = target: T1, HEWL amyloids (Gallus gallus, UniProt P00698); assay: HEWL to PE Förster resonance energy transfer; format: binding, hen; conditions: excitation 280 nm
T1 construct: Lyophilized HEWL was dissolved at 10 mg/mL in 10 mM pH 3 sodium citrate buffer with 0.1 M NaCl; purchased Sigma-Aldrich; host or cells: hen egg white; fibrillised in house (pH 3, 70 °C, stirred)
From the text: The results are summarized as FRET efficiencies in FIG. 20, illustrating HEWL ? PE FRET efficiencies calculated from spectral data by the equation E=FA/(FD+FA) where FD is the integrated area under the donor emission peak, and FA is the integrated area under the acceptor emission peak. This simple expression is valid for this case since the PEs are nonfluorescent when excited at the donor excitation wavelength, eliminating crosstalk. Thus, FA is the total number of energy transfer events, and (FA+FD) is the total number of excitation events. Theoretically, the efficiencies should be convertible into distances by
For studies of fluorescence enhancement vs. protein incubation time, dyes were mixed with protein sample in phosphate buffer (10 mM, pH 7.4) at equal monomer concentration of 10 μM in the wells of a standard 96-well plate. Emission spectra were obtained using top read with a SpectraMax M2e plate-reading spectrophotometer (Molecular Devices, Sunnyvale, CA). Experiments were performed in duplicate and errors are reported as standard deviation. For analysis of bound PE excitation and emission spectra and protein-PE energy transfer, PEs (500 nM) were mixed with protein sample (5 μM, monomer basis) in phosphate buffer and the solution transferred to a quartz, fluorometry cuvette. […]

[2] = Photophysical properties of PEs alone (excitation/emission spectra, fluorescence yield); format: physicochemical; conditions: for λem (PB): phosphate buffer; for λex (PB), high-energy band / λex (PB), low-energy band: phosphate buffer pH 7.4, 10 mM, PE 500 nM
Protocol: Excitation and emission spectra of PEs in phosphate buffer alone, with monomeric HEWL and with HEWL amyloids (8 h incubated) are shown in FIGS. 18A-H, and relevant photophysical properties are summarized in Table 1. FIGS. 18A-H illustrate excitation (A, B, C, D) and emission (right; E, F, G. H) spectra of PEs (A, E: PE1+; B, F: PE1−; C, G: PE2+; D, H: […]) alone (long dashed line) with HEWL monomers (short dashed line) and with HEWL amyloids (solid line); PE concentration: 500 nM, protein concentration: 5 μM monomer basis/0.25 mg/mL; emission and excitation wavelengths, respectively, were chosen as shown in Table 1 for each sample. A 10:1 molar ratio of protein to PE was used for these experiments. Absorbance spectra were taken, but background light scattering from insoluble amyloid aggregates made them difficult to interpret, so “fluorescence detected absorbance” in the form of excitation spectra was used instead. Normalized excitation and emission spectra, in which peak shifts and lineshape changes of spectra were somewhat easier to visualize, were used. […] PE1+ (FIG. 18E) had no change in wavelength or lineshape of emission spectrum, just a large increase in intensity when mixed with amyloids. The excitation spectra (FIGS. 18A, B, C, D) show a notable bathochromic shift for each PE in solution mixed with amyloid, of 23, 27, 35 and 29 nm for PE1+, PE2+, PE3+ and PE1−, respectively, observing only the low-energy band. The high-energy band, less relevant for imaging purposes, was also bathochromically shifted. […] PE1− had similar excitation spectrum (FIG. 18B) with monomer and amyloid, except for a large intensity difference.
For studies of fluorescence enhancement vs. protein incubation time, dyes were mixed with protein sample in phosphate buffer (10 mM, pH 7.4) at equal monomer concentration of 10 μM in the wells of a standard 96-well plate. Emission spectra were obtained using top read with a SpectraMax M2e plate-reading spectrophotometer (Molecular Devices, Sunnyvale, CA). Experiments were performed in duplicate and errors are reported as standard deviation. For analysis of bound PE excitation and emission spectra and protein-PE energy transfer, PEs (500 nM) were mixed with protein sample (5 μM, monomer basis) in phosphate buffer and the solution transferred to a quartz, fluorometry cuvette. Spectra were obtained on a PTI QuantaMaster 40 steady state spectrofluorometer (HORIBA Scientific, Edison, NJ).

[3] = Absorbance/fluorescence spectroscopy and fluorescence quantum yield (comparative method) of PEs and PE/substrate aggregates; format: physicochemical

T1 sequence (P00698 19-147): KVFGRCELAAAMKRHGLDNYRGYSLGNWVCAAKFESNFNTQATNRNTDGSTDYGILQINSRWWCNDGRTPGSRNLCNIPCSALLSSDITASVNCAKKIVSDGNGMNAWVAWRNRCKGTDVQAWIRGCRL

| Structure (SMILES) | fluorescence quantum yield, previously reported value [1] | HEWL to PE FRET efficiency, relative (HEWL amyloids) | λem (H2O) [2] [nm] | φfl (H2O) [2] | φfl (MeOH) [2] | λem (PB) [2] [nm] | λex (PB), high-energy band [2] [nm] | λex (PB), low-energy band [2] [nm] | centre of structured emission upon aggregation with substrate ([3]; +2C with DLPG, −1C with LaCh) [nm] | fluorescence quantum yield of aggregate with DLPG ([3]; […] PE with 16 uM DLPG) | fluorescence enhancement on aggregation with DLPG ([3]; at 440 nm) [times] | fluorescence quantum yield, PE alone ([3]; in water, corrected value of this study) |
| --- | --- | --- | --- | --- | --- | --- | --- | --- | --- | --- | --- | --- |
| CCOC(=O)c1ccc(C#Cc2cc(OCC[N+](C)(C)C)c(C#Cc3ccc(C#Cc4cc(OCC[N+](C)(C)C)c(C#Cc5ccc(C(=O)OCC)cc5)cc4OCC[N+](C)(C)C)cc3)cc2OCC[N+](C)(C)C)cc1 [PE2+] | 0.039 | highest efficiency | 448 | 0.039 | 0.71 | 460 | 330 | 399 | 450 | 0.63 | 39 | ≤ 0.016 |
| CCOC(=O)c1ccc(C#Cc2cc(OCC[N+](C)(C)C)c(C#Cc3ccc(C#Cc4cc(OCC[N+](C)(C)C)c(C#Cc5ccc(C#Cc6cc(OCC[N+](C)(C)C)c(C#Cc7ccc(C(=O)OCC)cc7)cc6OCC[N+](C)(C)C)cc5)cc4OCC[N+](C)(C)C)cc3)cc2OCC[N+](C)(C)C)cc1 [PE3+] | – | – | 440 | 0.069 | 0.70 | 464 | 340 | 399 | – | – | – | – |
